Earlier results in patent publication US8431577B2, “Crystalline form of eszopiclone, composition, preparation and uses thereof” (Tianjin Tasly Group Co., Ltd., priority 2008, dated 2013).

Details: comparative acute toxicity research; cited from earlier work

In the case of `CN1CCN(C(=O)O[C@H]2c3nccnc3C(=O)N2c2ccc(Cl)cn2)CC1` [S-zopiclone, (+)-(S)-(4-methylpiperazine-1-carboxylate)(6-(5-chloropyridinyl-2-yl)-7-carbonyl-6,7-dihydro-5-H-pyrrolo[3,4-b]pyrazin-5-yl ester)], the “acute toxicity compared with racemic zopiclone” value is listed as “low toxicity than that of the racemic zopiclone”.
